Results reported in ChEMBL document CHEMBL1938378, “Synthesis and evaluation of tetrahedral intermediate mimic inhibitors of 3-deoxy-d-manno-octulosonate 8-phosphate synthase” (Bioorg Med Chem Lett, 2012).

How the values were obtained:
[1] = molecular target: 2-dehydro-3-deoxyphosphooctonate aldolase (Neisseria meningitidis serogroup B (strain MC58), UniProt Q9JZ55); experiment: Competitive inhibition of Neisseria meningitidis serotype B strain MC58 ATCC BAA355 KDO8P synthase expressed in Escherichia coli BL21 (DE3) cells using PEP as substrate after 10 to 15 mins by Michaelis-Menten equation
[2] = Competitive inhibition of Acidithiobacillus ferrooxidans KDO8P synthase using PEP as substrate after 10 to 15 mins by Michaelis-Menten equation
[3] = Inhibition of Escherichia coli KDO8P
[4] = Inhibition of Helicobacter pylori KDO8P

2-dehydro-3-deoxyphosphooctonate aldolase, sequence (Q9JZ55 whole entry): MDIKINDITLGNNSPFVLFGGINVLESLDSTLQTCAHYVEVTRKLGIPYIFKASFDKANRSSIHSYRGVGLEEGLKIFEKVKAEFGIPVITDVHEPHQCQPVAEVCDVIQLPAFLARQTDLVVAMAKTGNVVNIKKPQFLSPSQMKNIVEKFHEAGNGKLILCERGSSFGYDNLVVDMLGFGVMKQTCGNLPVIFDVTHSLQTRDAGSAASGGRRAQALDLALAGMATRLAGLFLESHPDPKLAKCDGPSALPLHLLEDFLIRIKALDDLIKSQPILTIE

SMILES | Ki [1] [µM] | Ki [2] [µM] | Ki [3] [µM] | IC50 [4] [µM]
C[C@H](OP(=O)(O)O)C(=O)O | 1200 | 1000 | – | –
O=C(O)C(CCCCCCOP(=O)(O)O)OP(=O)(O)O (centres undefined) | 7.9 | 20 | – | –
O=C(O)CN(C[C@@H](O)[C@@H](O)[C@H](O)[C@H](O)COP(=O)(O)O)CP(=O)(O)O | – | – | 0.37 | 132
C[C@@H](OP(=O)(O)O)C(=O)O | 870 | 390 | – | –
O=C(O)C(CCCCCCO)OP(=O)(O)O (centres undefined) | 1000 | 540 | – | –
O=C(O)C(O)CCCCCCOP(=O)(O)O (centres undefined) | 270 | 190 | – | –
O=C(O)CNCP(=O)(O)O [GLYPHOSATE] | 260 | 330 | – | –
